Values after ≈ are worked out from the molar mass of the structure shown.
Test system: K562
Assay: Growth inhibition of human K562 cells assessed as cell growth at 10 uM incubated for 48 hrs by sulforhodamine B assay relative to control
Type: functional
Details: K562, 48 h, read-out: Activity

Compound | growth at 10 µM
CCCCOc1nc2c(C)cccc2cc1C1CNC(=O)c2ccccc2N1 (centres undefined) | 19%
O=C1CC(c2cc3ccccc3[nH]c2=O)Nc2ccccc21 (centres undefined) | 102%

Test system: EKVX
Assay: Growth inhibition of human EKVX cells assessed as cell growth at 10 uM incubated for 48 hrs by sulforhodamine B assay relative to control
Type: functional
Details: read-out: Activity

Compound | growth at 10 µM
CCCCOc1nc2c(C)cccc2cc1C1CNC(=O)c2ccccc2N1 (centres undefined) | 61.9%
O=C1CC(c2cc3ccccc3[nH]c2=O)Nc2ccccc21 (centres undefined) | 108%

Test system: Trypanosoma cruzi
Assay: Antitrypanosomal activity against Trypanosoma cruzi Tulahuen amastigote forms infected in human U937 cells after 72 hrs by beta-galactosidase reporter gene assay
Type: functional, organism-based
Details: U-937, 72 h

Compound | EC50
CCCCOc1nc2c(C)cccc2cc1C1CNC(=O)c2ccccc2N1 (centres undefined) | 2.68 µg/mL (≈ 7.14 µM)

Test system: HCT-15
Assay: Growth inhibition of human HCT15 cells assessed as cell growth at 10 uM incubated for 48 hrs by sulforhodamine B assay relative to control
Type: functional
Details: HCT-15, 48 h, read-out: Activity

Compound | growth at 10 µM
CCCCOc1nc2c(C)cccc2cc1C1CNC(=O)c2ccccc2N1 (centres undefined) | 43.4%
O=C1CC(c2cc3ccccc3[nH]c2=O)Nc2ccccc21 (centres undefined) | 97.8%

Test system: SNB-75
Assay: Growth inhibition of human SNB75 cells assessed as cell growth at 10 uM incubated for 48 hrs by sulforhodamine B assay relative to control
Type: functional
Details: SNB-75, 48 h, read-out: Activity

Compound | growth at 10 µM
CCCCOc1nc2c(C)cccc2cc1C1CNC(=O)c2ccccc2N1 (centres undefined) | 56.6%
O=C1CC(c2cc3ccccc3[nH]c2=O)Nc2ccccc21 (centres undefined) | 90.4%

Test system: M14
Assay: Growth inhibition of human M14 cells assessed as cell growth at 10 uM incubated for 48 hrs by sulforhodamine B assay relative to control
Type: functional
Details: M14, 48 h, read-out: Activity

Compound | growth at 10 µM
CCCCOc1nc2c(C)cccc2cc1C1CNC(=O)c2ccccc2N1 (centres undefined) | 54.7%
O=C1CC(c2cc3ccccc3[nH]c2=O)Nc2ccccc21 (centres undefined) | 101%

Test system: SF-295
Assay: Growth inhibition of human SF295 cells assessed as cell growth at 10 uM incubated for 48 hrs by sulforhodamine B assay relative to control
Type: functional
Details: SF-295, 48 h, read-out: Activity

Compound | growth at 10 µM
CCCCOc1nc2c(C)cccc2cc1C1CNC(=O)c2ccccc2N1 (centres undefined) | 52.5%
O=C1CC(c2cc3ccccc3[nH]c2=O)Nc2ccccc21 (centres undefined) | 98.4%

Test system: U-937
Assay: Cytotoxicity against human U937 cells after 72 hrs by MTT assay
Type: functional
Details: U-937, 72 h, read-out: LC50 (the source's name)

Compound | CC50
CCCCOc1nc2c(C)cccc2cc1C1CNC(=O)c2ccccc2N1 (centres undefined) | 1 µg/mL (≈ 2.66 µM)

Test system: LOX IMVI
Assay: Growth inhibition of human LOXIMVI cells assessed as cell growth at 10 uM incubated for 48 hrs by sulforhodamine B assay relative to control
Type: functional
Details: read-out: Activity

Compound | growth at 10 µM
CCCCOc1nc2c(C)cccc2cc1C1CNC(=O)c2ccccc2N1 (centres undefined) | 60.8%
O=C1CC(c2cc3ccccc3[nH]c2=O)Nc2ccccc21 (centres undefined) | 98.2%

Test system: SK-MEL-5
Assay: Growth inhibition of human SK-MEL-5 cells assessed as cell growth at 10 uM incubated for 48 hrs by sulforhodamine B assay relative to control
Type: functional
Details: SK-MEL-5, 48 h, read-out: Activity

Compound | growth at 10 µM
CCCCOc1nc2c(C)cccc2cc1C1CNC(=O)c2ccccc2N1 (centres undefined) | 43.4%
O=C1CC(c2cc3ccccc3[nH]c2=O)Nc2ccccc21 (centres undefined) | 103%

Test system: NCI-H460
Assay: Growth inhibition of human NCI-H460 cells assessed as cell growth at 10 uM incubated for 48 hrs by sulforhodamine B assay relative to control
Type: functional
Details: NCI-H460, 48 h, read-out: Activity

Compound | growth at 10 µM
CCCCOc1nc2c(C)cccc2cc1C1CNC(=O)c2ccccc2N1 (centres undefined) | 56.2%
O=C1CC(c2cc3ccccc3[nH]c2=O)Nc2ccccc21 (centres undefined) | 105%

Test system: SF-268
Assay: Growth inhibition of human SF268 cells assessed as cell growth at 10 uM incubated for 48 hrs by sulforhodamine B assay relative to control
Type: functional
Details: SF-268, 48 h, read-out: Activity

Compound | growth at 10 µM
CCCCOc1nc2c(C)cccc2cc1C1CNC(=O)c2ccccc2N1 (centres undefined) | 66.9%
O=C1CC(c2cc3ccccc3[nH]c2=O)Nc2ccccc21 (centres undefined) | 101%

Test system: Hs-578T
Assay: Growth inhibition of human Hs 578T cells assessed as cell growth at 10 uM incubated for 48 hrs by sulforhodamine B assay relative to control
Type: functional
Details: read-out: Activity

Compound | growth at 10 µM
CCCCOc1nc2c(C)cccc2cc1C1CNC(=O)c2ccccc2N1 (centres undefined) | 69.7%
O=C1CC(c2cc3ccccc3[nH]c2=O)Nc2ccccc21 (centres undefined) | 99.7%

Test system: Plasmodium falciparum
Assay: Antimalarial activity against chloroquine-sensitive Plasmodium falciparum 3D7 incubated for 48 hrs by malstat reagent based LDH release assay
Type: functional, organism-based
Details: 3D7, 48 h

Compound | EC50
CCCCOc1nc2c(C)cccc2cc1C1CNC(=O)c2ccccc2N1 (centres undefined) | > 20 µg/mL

Test system: MOLT-4
Assay: Growth inhibition of human MOLT4 cells assessed as cell growth at 10 uM incubated for 48 hrs by sulforhodamine B assay relative to control
Type: functional
Details: MOLT-4, 48 h, read-out: Activity

Compound | growth at 10 µM
CCCCOc1nc2c(C)cccc2cc1C1CNC(=O)c2ccccc2N1 (centres undefined) | 39%
O=C1CC(c2cc3ccccc3[nH]c2=O)Nc2ccccc21 (centres undefined) | 102%

Test system: MDA-MB-435
Assay: Growth inhibition of human MDA-MB-435 cells assessed as cell growth at 10 uM incubated for 48 hrs by sulforhodamine B assay relative to control
Type: functional
Details: MDA-MB-435, 48 h, read-out: Activity

Compound | growth at 10 µM
CCCCOc1nc2c(C)cccc2cc1C1CNC(=O)c2ccccc2N1 (centres undefined) | 4.51%
O=C1CC(c2cc3ccccc3[nH]c2=O)Nc2ccccc21 (centres undefined) | 108%

Test system: HL-60(TB)
Assay: Growth inhibition of human HL-60(TB) cells assessed as cell growth at 10 uM incubated for 48 hrs by sulforhodamine B assay relative to control
Type: functional
Details: HL-60, 48 h, read-out: Activity

Compound | growth at 10 µM
CCCCOc1nc2c(C)cccc2cc1C1CNC(=O)c2ccccc2N1 (centres undefined) | 26.2%
O=C1CC(c2cc3ccccc3[nH]c2=O)Nc2ccccc21 (centres undefined) | 98%

Test system: SK-MEL-2
Assay: Growth inhibition of human SK-MEL-2 cells assessed as cell growth at 10 uM incubated for 48 hrs by sulforhodamine B assay relative to control
Type: functional
Details: SK-MEL-2, 48 h, read-out: Activity

Compound | growth at 10 µM
CCCCOc1nc2c(C)cccc2cc1C1CNC(=O)c2ccccc2N1 (centres undefined) | 62.9%
O=C1CC(c2cc3ccccc3[nH]c2=O)Nc2ccccc21 (centres undefined) | 98.3%

Test system: HCC 2998
Assay: Growth inhibition of human HCC2998 cells assessed as cell growth at 10 uM incubated for 48 hrs by sulforhodamine B assay relative to control
Type: functional
Details: HCC 2998, 48 h, read-out: Activity

Compound | growth at 10 µM
CCCCOc1nc2c(C)cccc2cc1C1CNC(=O)c2ccccc2N1 (centres undefined) | 101%
O=C1CC(c2cc3ccccc3[nH]c2=O)Nc2ccccc21 (centres undefined) | 103%

Test system: DU-145
Assay: Growth inhibition of human DU145 cells assessed as cell growth at 10 uM incubated for 48 hrs by sulforhodamine B assay relative to control
Type: functional
Details: DU-145, 48 h, read-out: Activity

Compound | growth at 10 µM
CCCCOc1nc2c(C)cccc2cc1C1CNC(=O)c2ccccc2N1 (centres undefined) | 86%
O=C1CC(c2cc3ccccc3[nH]c2=O)Nc2ccccc21 (centres undefined) | 105%

Test system: SR
Assay: Growth inhibition of human SR cells assessed as cell growth at 10 uM incubated for 48 hrs by sulforhodamine B assay relative to control
Type: functional
Details: read-out: Activity

Compound | growth at 10 µM
CCCCOc1nc2c(C)cccc2cc1C1CNC(=O)c2ccccc2N1 (centres undefined) | 18.1%
O=C1CC(c2cc3ccccc3[nH]c2=O)Nc2ccccc21 (centres undefined) | 95.4%

Test system: MCF7
Assay: Growth inhibition of human MCF7 cells assessed as cell growth at 10 uM incubated for 48 hrs by sulforhodamine B assay relative to control
Type: functional
Details: MCF7, 48 h, read-out: Activity

Compound | growth at 10 µM
CCCCOc1nc2c(C)cccc2cc1C1CNC(=O)c2ccccc2N1 (centres undefined) | 15.8%
O=C1CC(c2cc3ccccc3[nH]c2=O)Nc2ccccc21 (centres undefined) | 102%

Test system: CAKI-1
Assay: Growth inhibition of human Caki1 cells assessed as cell growth at 10 uM incubated for 48 hrs by sulforhodamine B assay relative to control
Type: functional
Details: CAKI-1, 48 h, read-out: Activity

Compound | growth at 10 µM
CCCCOc1nc2c(C)cccc2cc1C1CNC(=O)c2ccccc2N1 (centres undefined) | 52.1%
O=C1CC(c2cc3ccccc3[nH]c2=O)Nc2ccccc21 (centres undefined) | 95.2%

Test system: Leishmania panamensis
Assay: Antileishmanial activity against EpiR/GFP fused Leishmania panamensis MHOM/CO/87/UA140 intracellular amastigotes infected in human […] cells after 72 hrs by flow cytometric method
Type: functional, organism-based
Details: MHOM/CO/87/UA140, 72 h

Compound | EC50
CCCCOc1nc2c(C)cccc2cc1C1CNC(=O)c2ccccc2N1 (centres undefined) | 3.35 µg/mL (≈ 8.92 µM)

Test system: BT-549
Assay: Growth inhibition of human BT549 cells assessed as cell growth at 10 uM incubated for 48 hrs by sulforhodamine B assay relative to control
Type: functional
Details: BT-549, 48 h, read-out: Activity

Compound | growth at 10 µM
CCCCOc1nc2c(C)cccc2cc1C1CNC(=O)c2ccccc2N1 (centres undefined) | 74.5%
O=C1CC(c2cc3ccccc3[nH]c2=O)Nc2ccccc21 (centres undefined) | 94.3%

Test system: PC-3
Assay: Growth inhibition of human PC3 cells assessed as cell growth at 10 uM incubated for 48 hrs by sulforhodamine B assay relative to control
Type: functional
Details: PC-3, 48 h, read-out: Activity

Compound | growth at 10 µM
CCCCOc1nc2c(C)cccc2cc1C1CNC(=O)c2ccccc2N1 (centres undefined) | 40.1%
O=C1CC(c2cc3ccccc3[nH]c2=O)Nc2ccccc21 (centres undefined) | 104%

Test system: MDA-MB-231
Assay: Growth inhibition of human MDA-MB-231 cells assessed as cell growth at 10 uM incubated for 48 hrs by sulforhodamine B assay relative to control
Type: functional
Details: MDA-MB-231, 48 h, read-out: Activity

Compound | growth at 10 µM
CCCCOc1nc2c(C)cccc2cc1C1CNC(=O)c2ccccc2N1 (centres undefined) | 65.3%
O=C1CC(c2cc3ccccc3[nH]c2=O)Nc2ccccc21 (centres undefined) | 83.9%

Test system: 786-0
Assay: Growth inhibition of human 786-0 cells assessed as cell growth at 10 uM incubated for 48 hrs by sulforhodamine B assay relative to control
Type: functional
Details: 786-0, 48 h, read-out: Activity

Compound | growth at 10 µM
CCCCOc1nc2c(C)cccc2cc1C1CNC(=O)c2ccccc2N1 (centres undefined) | 46.2%
O=C1CC(c2cc3ccccc3[nH]c2=O)Nc2ccccc21 (centres undefined) | 93.9%

Test system: RPMI-8226
Assay: Growth inhibition of human RPMI8226 cells assessed as cell growth at 10 uM incubated for 48 hrs by sulforhodamine B assay relative to control
Type: functional
Details: RPMI-8226, 48 h, read-out: Activity

Compound | growth at 10 µM
CCCCOc1nc2c(C)cccc2cc1C1CNC(=O)c2ccccc2N1 (centres undefined) | 57.5%
O=C1CC(c2cc3ccccc3[nH]c2=O)Nc2ccccc21 (centres undefined) | 107%
